{"source": "patent US20010006673A1", "about": "“LUTEIN- CONTAINING SUPPLEMENT AND PROCESS FOR ENHANCING IMMUNE RESPONSE IN ANIMALS” (priority 1998, published 2001)", "key": {"IgG and IgM": {"system": "IgG and IgM", "assay": "Serum IgG and IgM by single radial immunodiffusion, dogs", "format": "in vivo, Beagle dogs", "protocol": "Serum collected on weeks 0, 2, 4, 8 and 12 were analyzed for IgG and IgM concentrations by single radial immunodiffusion (SRID). In addition, all dogs were vaccinated with the polyvalent vaccine (Vanguard 5, Smithkline Beacham, West Chester, Pa.) on week 13 and again on week 15 to study the possible anamnestic effect of dietary lutein. Blood was collected weekly from week 13 through week 17. Goat antiserum to canine IgG (10%, whole molecule) or IgM (7.5%, μ chain specific) (ICN, Aurora, Ohio) was mixed with melted agarose (10 g/L in PBS; Sigma Chem. Co., St. Louis, Mo.) and the mixture solidified in SRID plates.\nDuplicate 5 μL volumes of serum or IgG (0, 2.88, 5.75, 11.5 and 23.0 mg/ml) or IgM (0, 0.25, 0.5, 1.0 and 2.0 mg/ml) standard were loaded into the wells. After incubating for 24 hours at room temperature in a humidified chamber, ring diameters were measured using a SRID reader (Transidyne General Corp., Ann Arbor, Mich.)."}, "[1]": {"system": "peripheral blood mononuclear cells (PBMC)", "assay": "Mitogen-induced lymphocyte proliferation by PBMC, whole blood culture, dogs", "format": "in vivo, Beagle dogs", "protocol": "Blood collected on weeks 0, 2, 4, 8 and 12 were used to assess mitogen-induced lymphocyte proliferation by peripheral blood mononuclear cells (PBMC). Whole blood culture was used in order to mimic in vivo conditions. Mitogens used were phytohemagglutinin (PHA), concanavalin A (Con A) and pokeweed mitogen (PWM). Whole blood was thoroughly mixed and then diluted 1:12 with RPMI-1640 containing 25 mM of Hepes, penicillin (100 U/mL) and streptomycin (100 μg/mL) (Sigma, St. Louis, Mo.). […] Triplicate 150 μL volumes were pipetted into 96-well round bottom plates and 50 μl of the appropriate mitogens added. The final concentrations of the mitogens in culture were 2 and 10 μg/mL for PHA, 1 and 5 μg/mL for Con A and 0.5 and 2.5 μg/mL for PWM. The two mitogen concentrations gave maximum (the higher mitogen concentration) and suboptimal (lower mitogen concentration) proliferative responses in preliminary studies using blood from similar animals. The mixture was incubated for 72 h at 37° C. in a humidified incubator under a 5% CO2 atmosphere. Four hours prior to the termination of the incubation period, 20 μL of [^3H]-thymidine (1 [μCi/well) were added. Cells were harvested onto fiberglass filters and radioactivity was counted by liquid scintillation. Proliferation response of PBMC was expressed as stimulation index (cpm of stimulated cultures/cpm of unstimulated cultures)."}, "[2]": {"system": "lymphocyte subsets (CD5, CD4, CD8, MHC class II, CD21)", "assay": "Lymphocyte subsets by flow cytometry, dogs", "format": "in vivo, Beagle dogs", "protocol": "Blood leukocytes were separated using Histopaque-1119 (Sigma, St. Louis, Mo.). Cells were washed three times with phosphate-buffered saline (PBS, pH 7.4) and contaminating erythrocytes were lysed in NH4CI (8.4 g/L). Lymphocyte subsets were determined by flow cytometry (FACScan, Becton Dickinson, San Jose, Calif.). Isolated mononuclear cells were resuspended to 1×10^7 cells/mL in PBS supplemented with 2% gamma globulin-free serum, 5% goat serum and 0.2 g/L sodium azide. For immunofluorescence analysis, a total of 5×10^5 cells were incubated for 30 minutes on ice with optimal concentrations of mouse anti-canine monoclonal antibody (mAb). The mAb used were specific for the following lymphocyte subsets: total T cells (anti-CD5), T-helper cells (anti-CD4), T-cytotoxic/suppressor cells (anti-CD8), lymphocytes expressing major histocompatability complex (MHQ class II antigens (anti-MHC class II), and B cells (anti-CD21). Cells were then washed three times and incubated with a secondary antibody, fluorescein isothiocyanate (FITC)-conjugated goat F(ab′)2 anti-mouse IgG+IgM (H+L) (Caltag, Burlingame, Calif.), for 30 minutes on ice to visualize the bound mAb. Stained cells were fixed in 4% paraformaldehyde in preparation for acquisition. Appropriate negative controls were included to correct for background fluorescence. Data were expressed as the percentage of positive-staining cells corrected for cells stained nonspecifically with the secondary antibody."}, "cats": {"system": "cats", "assay": "Delayed type hypersensitivity (DTH) response in cats", "format": "in vivo, Tabby cats", "settings": "for DTH response to vaccine: week 6, 72 h post-injection"}, "malondialdehyde": {"system": "malondialdehyde", "assay": "Lipid peroxidation (TBARS), cat plasma", "format": "in vivo, Tabby cats", "settings": "cats", "protocol": "Lipid peroxidation was assessed by the TBARS (thiobarbituric acid-reactive substances) assay on plasma collected on weeks 0, 2, 4, 8 and 12. Duplicate 500 μL of cat plasma was boiled for 45 minutes with 3 mL of phosphoric acid (10 g/L) and 1 mL of TBA (6 g/L). After cooling, the TBA-MDA (malondialdehyde) complex was extracted with 4 mL of n-butanol. The butanol layer was separated by centrifugation (1,000×g for 10 minutes) and absorbance read (Beckman, Fullerton, Calif.) at 532 nm. […] Louis, Mo.)."}, "[3]": {"assay": "Body weight and food intake of cats fed lutein", "format": "in vivo, Tabby cats", "protocol": "Fifty-six female Tabby cats (10 months old) were randomly assigned to be fed 0, 1, 5, or 10 mg lutein daily for 12 weeks. The lutein contained 76.66% lutein and 5.23% zeaxanthin and was incorporated into the basal diet (see Table 3) to a final concentration of 250 mg lutein/kg of diet.\nPrior to being fed to the cats, the lutein-containing diet was mixed with additional basal diet to achieve the desired lutein concentration. The final diets were mixed weekly and stored at −20° C. in sealed containers undernitrogen gas. […] Food and water were available ad libitum. Cats were housed (7 cats/pen; 1.5×5.0 m) in a temperature (20 to 22° C.) and light (14 h light) controlled facility."}}, "data": [{"smiles": "CC1=C[C@H](O)CC(C)(C)[C@H]1/C=C/C(C)=C/C=C/C(C)=C/C=C/C=C(C)/C=C/C=C(C)/C=C/C1=C(C)C[C@@H](O)CC1(C)C", "note": "[lutein]", "values": [{"measurement": "Plasma IgG", "setting": "IgG and IgM; dogs fed 5 mg lutein, week 16, after revaccination on week 15, P<0.05", "value": "higher"}, {"measurement": "Plasma IgG", "setting": "IgG and IgM; dogs fed 20 mg lutein, week 17, after revaccination on week 15", "value": "higher"}, {"measurement": "Concentration of plasma IgM", "setting": "IgG and IgM; dogs, after revaccination", "value": "not changed"}, {"measurement": "Spontaneous proliferation by unstimulated PBMC", "setting": "[1]; dogs", "value": "did not significantly influence"}, {"measurement": "PWM-stimulated PBMC proliferative response", "setting": "[1]; dogs fed 10 mg lutein, week 8", "value": "higher"}, {"measurement": "Con A-stimulated PBMC proliferation", "setting": "[1]; dogs fed 10 mg lutein, weeks 8 and 12, 5 μg/mL Con A", "value": "higher"}, {"measurement": "PHA-stimulated PBMC proliferative response vs unsupplemented", "setting": "[1]; dogs fed 20 mg lutein, week 8, P<0.01", "value": "enhanced"}, {"measurement": "PWM-stimulated PBMC proliferation vs unsupplemented controls", "setting": "[1]; dogs fed 20 mg lutein, week 8 and 12, both concentrations of PWM", "value": "significantly higher"}, {"measurement": "PHA-stimulated PBMC proliferative response vs unsupplemented", "setting": "[1]; dogs fed 20 mg lutein, week 12, 2 and 10 μg/mL PHA, P<0.01", "value": "enhanced"}, {"measurement": "Con A-stimulated PBMC proliferation", "setting": "[1]; dogs fed 20 mg lutein, weeks 8 and 12, both concentrations of Con A", "value": "higher"}, {"measurement": "PHA-stimulated PBMC proliferation", "setting": "[1]; dogs fed 5 and 10 mg lutein, week 8, 10 μg/ml PHA", "value": "higher"}, {"measurement": "PHA-stimulated PBMC response", "setting": "[1]; dogs, weeks 0 and 4", "value": "no significant effect"}, {"measurement": "PWM-stimulated PBMC proliferation", "setting": "[1]; dogs, weeks 0 and 4", "value": "no significant treatment difference"}, {"measurement": "CD21+ B cell population", "setting": "[2]; dogs", "value": "did not significantly influence"}, {"measurement": "% CD8+ T cytotoxic cells vs control", "setting": "[2]; dogs fed 20 mg lutein, week 8", "value": "significantly higher"}, {"measurement": "% MHC class II cell populations vs unsupplemented dogs", "setting": "[2]; dogs fed 20 mg lutein, week 8 and 12", "value": "elevated"}, {"measurement": "% CD4+ cells", "setting": "[2]; dogs fed 5 and 10 mg lutein, week 12", "value": "higher"}, {"measurement": "CD8+ population", "setting": "[2]; dogs, week 12", "value": "not influenced"}, {"measurement": "Percentages of CD5+ cells vs unsupplemented controls", "setting": "[2]; dogs, weeks 4 and 8, statistically significant with 5 and 20 mg lutein", "value": "higher"}, {"measurement": "DTH response to vaccine", "setting": "cats; cats fed 5 or 10 mg lutein", "value": "significantly higher"}, {"measurement": "DTH response to Con A", "setting": "cats; cats, week 6", "value": "no significant dietary effect"}, {"measurement": "DTH response to vaccine", "setting": "cats; cats, all doses", "value": "significant dose-related"}, {"measurement": "DTH response to Con A and vaccine", "setting": "cats; cats, week 12", "value": "no significant treatment difference"}, {"measurement": "Effect on plasma TBARS activity", "setting": "malondialdehyde", "value": "did not significantly influence"}, {"measurement": "Plasma TBARS, average", "setting": "malondialdehyde; across all diet groups and periods", "value": "20.3±0.2", "unit": "nmol MDA/L"}, {"measurement": "Food intake among treatments", "setting": "[3]", "value": "not significantly different"}, {"measurement": "Body weight average", "setting": "[3]; across all diets and periods", "value": "1.41 ± 0.04", "unit": "kg"}, {"measurement": "Average daily food intake", "setting": "[3]; across the study period", "value": 83.2, "unit": "g"}, {"measurement": "Effect on changes in body weight", "setting": "[3]; during the experimental period", "value": "did not significantly affect"}]}]}
